From patent US7186710B2, “Phthalazinones” (Altana Pharma AG, priority 2001, dated 2007) come the findings set out here.

Series [1] concerns the target T1, PDE4D3 (Homo sapiens, UniProt Q08499).
T1 construct: made in house; host or cells: SF21 insect cells (baculovirus, pBacPak9)
The series is described as follows: Inhibition of PDE4 activity, [3H]cAMP SPA enzyme assay with recombinant PDE4D3. It counts as biochemical. The settings on record: recombinant PDE4D3 from SF21 insect cells, 0.5 μM cAMP; for IC50: read-out: PDE4 −logIC50 (converted). The source says:
(§1) Method for Measuring Inhibition of PDE4 and PDE7 Activities
(§2) The cDNA for PDE7A1 (Genebank Acc. No. L12052) was isolated, using RT-PCR, from total cellular RNA derived from the T cell line CCRF-CEM and cloned into the cloning vector pCR2.1 (invitrogen, Groningen, NL) under standard conditions (the manufacturer's instructions). For expression in insect cells, the cDNA was subcloned into the baculo expression vector pCRBac (invitrogen, Groningen, NL). The cDNA for PDE4D3 was a gift of Marco Conti (Stanford University, USA). The ORF (Genebank Acc. No. U50159) was cut from the original pCMV5 vector with the restriction enzymes EcoRI and XbaI and subcloned in the expression vector pBacPak9 (Clontech, Palo Alto).
(§3) The recombinant baculoylrus was prepared by means of homologous recombination in SF9 insect cells. The expression plasmids were cotransfected with Bac-N-Blue (invitrogen, Groningen, NL) or Baculo-Gold DNA (Pharmingen, Hamburg) using a standard protocol (Pharmingen, Hamburg). Wt virus-free recombinant virus supernatants were selected using plaque assay methods. After that, high-titre virus supernatants were prepared by amplifying 3 times. PDEs were expressed in SF21 cells by infecting 2×10^6 cells/ml with an MOI (multiplicity of infection) between 2 and 5 in serum-free SF900 medium (Life Technologies, Paisley, UK). The cells were cultured at 28° C. for 48 hours, after which they were pelleted for 5–10 min at 1000 g and 4° C. In the case of PDE7A1 cells were cultured in spinner flasks at a rotational speed of 75 rpm.
(§4) The SF21 insect cells were resuspended, at a concentration of approx. 10^7 cells/ml, in ice-cold (4° C.) homogenization buffer (20 mM Tris, pH 8.2, containing the following additions: 140 mM NaCl, 3.8 mM KCl, 1 mM EGTA, 1 mM MgCl2, 1 mM β-mercaptoethanol, 2 mM benzamidine, 0.4 mM Pefablock, 10 μM leupeptin, 10 μM pepstatin A, 5 μM trypsin inhibitor) and disrupted by ultrasonication. The homogenate was then centrifuged for 10 min at 1000×g and the supernatant was stored at −80° C. until subsequent use (see below). The protein content was determined by the Bradford method (BioRad, Munich) using BSA as the standard.
(§5) PDE7A1 and PDE4D3 activities were inhibited by the said compounds in a modified SPA (scintillation proximity assay) test, supplied by Amersham Pharmacia Biotech (see procedural instructions “phosphodiesterase [3H]cAMP SPA enzyme assay, code TRKQ 7090”), carried out in 96-well microtitre plates (MTP's). The test volume is 100 μl and contains 20 mM Tris buffer (pH 7.4), 0.1 mg of BSA (bovine serum albumin)/ml, 5 mM Mg^2+, 0.5 μM cAMP (including about 50,000 cpm of [3H]cAMP), 2 μl of the respective substance dilution in DMSO and sufficient recombinant PDE (1000×g supernatant, see above) to ensure that 15–20% of the cAMP is converted under the said experimental conditions. After a preincubation of 5 min at 37° C., the reaction is started by adding the substrate (cAMP) and the assays are incubated for a further 15 min; after that, they are stopped by adding SPA beads (50 μl). In accordance with the manufacturer's instructions, the SPA beads had preylously been resuspended in water and then diluted 1:3 (v/v); the diluted solution also contains 3 mM IBMX. After the beads have been sedimented (>30 min), the MTP's are analyzed in commercially available measuring appliances and the corresponding IC50 values of the compounds for the inhibition of PDE activities are determined from the concentration-effect curves by means of non-linear regression.

Series [2] concerns the target T2, PDE7A1 (Homo sapiens, UniProt Q13946).
T2 construct: made in house; host or cells: SF21 insect cells (baculovirus, pCRBac)
Put plainly: Inhibition of PDE7 activity, [3H]cAMP SPA enzyme assay with recombinant PDE7A1. The format is biochemical. The settings on record: recombinant PDE7A1 from SF21 insect cells, 0.5 μM cAMP; for IC50: read-out: PDE7 −logIC50 (converted).
Excerpt: as §1, §2, §3, §4, §5

By melting point is commonly meant the temperature, or range, at which the solid turns liquid.

SMILES strings stand for the structures.

T2 sequence (Q13946 whole entry): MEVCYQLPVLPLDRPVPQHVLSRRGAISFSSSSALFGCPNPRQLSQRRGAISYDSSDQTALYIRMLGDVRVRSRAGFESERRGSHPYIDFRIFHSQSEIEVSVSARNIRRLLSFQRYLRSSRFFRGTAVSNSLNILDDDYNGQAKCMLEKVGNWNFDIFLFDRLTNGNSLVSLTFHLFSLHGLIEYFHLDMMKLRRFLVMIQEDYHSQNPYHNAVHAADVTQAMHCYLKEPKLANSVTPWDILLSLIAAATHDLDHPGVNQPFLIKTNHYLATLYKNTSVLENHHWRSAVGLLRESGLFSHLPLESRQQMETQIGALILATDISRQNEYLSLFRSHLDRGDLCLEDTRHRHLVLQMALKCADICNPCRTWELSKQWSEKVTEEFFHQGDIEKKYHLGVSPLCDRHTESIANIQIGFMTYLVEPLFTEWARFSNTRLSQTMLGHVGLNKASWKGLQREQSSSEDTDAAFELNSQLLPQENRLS
T1 sequence (Q08499 1-673 isoform Q08499-2): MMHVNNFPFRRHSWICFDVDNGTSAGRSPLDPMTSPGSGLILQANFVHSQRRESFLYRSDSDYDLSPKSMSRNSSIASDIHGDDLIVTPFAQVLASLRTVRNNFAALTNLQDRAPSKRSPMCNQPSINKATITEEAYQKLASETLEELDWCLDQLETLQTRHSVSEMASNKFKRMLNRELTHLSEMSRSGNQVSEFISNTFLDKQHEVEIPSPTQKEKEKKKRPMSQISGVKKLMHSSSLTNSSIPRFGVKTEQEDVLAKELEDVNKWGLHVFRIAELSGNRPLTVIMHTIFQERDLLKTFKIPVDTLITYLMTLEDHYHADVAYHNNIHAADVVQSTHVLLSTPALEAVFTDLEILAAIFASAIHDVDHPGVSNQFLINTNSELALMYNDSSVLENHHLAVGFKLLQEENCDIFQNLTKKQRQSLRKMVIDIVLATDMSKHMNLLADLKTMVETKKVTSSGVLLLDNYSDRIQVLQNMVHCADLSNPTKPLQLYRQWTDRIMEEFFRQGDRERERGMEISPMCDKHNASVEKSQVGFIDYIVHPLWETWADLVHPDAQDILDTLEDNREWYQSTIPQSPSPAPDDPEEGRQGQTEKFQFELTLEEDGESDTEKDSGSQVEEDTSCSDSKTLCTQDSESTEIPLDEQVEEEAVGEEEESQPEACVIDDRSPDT

For the molecule `COc1ccc(C2=NN(C3CCN(C(=O)N4CCOCC4)CC3)C(=O)[C@H]3CC=CC[C@@H]23)cc1Cl` (relative stereo) [Compound 1, (cis)-4-(3-Chloro-4-methoxy-phenyl)-2-[1-(1-morpholin-4-yl-methanoyl)-piperidin-4-yl]-4a,5,8,8a-tetrahydro-2H-phthalazin-1-one], the values for the IC50 in series [1] and in series [2] were 2.29 nM and 22.9 nM, respectively.
In turn, `COc1ccc(C2=NN(C3CCN(S(=O)(=O)c4ccc(C)cc4)CC3)C(=O)[C@H]3CC=CC[C@@H]23)cc1Cl` (relative stereo) [Compound 2, (cis)-4-(3-Chloro-4-methoxy-phenyl)-2-[1-(toluene-4-sulfonyl)-piperidin-4-yl]-4a,5,8,8a-tetrahydro-2H-phthalazin-1-one] displayed a melting point of 198 to 199 °C. Besides, the IC50 in series [1] is 3.98 nM. Further, in series [2], the IC50 was 107 nM.
For `COc1ccc(C2=NN(C3CCN(C(C)=O)CC3)C(=O)[C@@H]3CC=CC[C@H]23)cc1Cl` (relative stereo) [Compound 3, (cis)-2-(1-Acetyl-piperidin-4-yl)-4-(3-chloro-4-methoxy-phenyl)-4a,5.8,8a-tetrahydro-2H-phthalazin-1-one], in that order: 206 to 208 °C, 5.62 nM and 182 nM.
As to `COc1ccc(C2=NN(C3CCN(Cc4ccncc4)CC3)C(=O)[C@H]3CC=CC[C@@H]23)cc1Cl.Cl` (relative stereo) [Compound 4, (cis)-4-(3-Chloro-4-methoxy-phenyl)-2-(1-pyridin-4-ylmethyl-piperidin-4-yl)-4a,5,8,8a-tetrahydro-2H-phthalazin-1-one hydrochloride], the melting point is 244 °C (dec.). The IC50 in series [1] was 2.45 nM. Further, the IC50 in series [2] is 41.7 nM.
The like results for `COc1ccc(C2=NN(c3ccc(C(=O)N4CCN(CCN(C)C)CC4)cc3)C(=O)[C@H]3CC=CC[C@@H]23)cc1Cl.Cl.Cl` (relative stereo) [Compound 5, (cis)-4-(3-Chloro-4-methoxy-phenyl)-2-(4-{1-[4-(2-dimethylamino-ethyl)-piperazin-1-yl]-methanoyl}-phenyl)-4a,5,8,8a-tetrahydro-2H-phthalazin-1-one dihydrochloride] were, in that order, 198 to 201 °C, 13.8 nM and 66.1 nM.
With `COc1ccc(C2=NN(c3nc(C)ccc3C(F)(F)F)C(=O)[C@H]3CC=CC[C@@H]23)cc1Cl` (relative stereo) [Compound 6], the “PDE4 −logIC50 (mol/l)” value in series [1] turned out to be 7.64. For the same molecule, in series [2], the “PDE7 −logIC50 (mol/l)” value stood at 7.08.
`COc1ccc(C2=NN(c3ccc4ncsc4c3)C(=O)[C@@H]3CC=CC[C@H]23)cc1Cl` (relative stereo) [Compound 7, (cis)-2-Benzothiazol-6-yl-4-(3-chloro-4-methoxy-phenyl)-4a,8,8a-tetrahydro-2H-phthalazin-1-one] displayed a melting point of 156 to 157 °C. The IC50 in series [1] is 8.13 nM. For the same molecule, the IC50 in series [2] is 105 nM.
Turning to `COc1ccc(C2=NN(c3ccc4c(c3)COC4=O)C(=O)[C@H]3CC=CC[C@@H]23)cc1Cl` (relative stereo) [Compound 8, (cis)-4-(3-Chloro-4-methoxy-phenyl)-2-(1-oxo-1,3-dihydro-isobenzofuran-5-yl)-4a,5,8,8a-tetrahydro-2H-phthalazin-1-one], the melting point lay in the range of 212 to 213 °C. The IC50 in series [1] is 8.91 nM. In series [2], the IC50 is 89.1 nM.
For `COc1ccc(C2=NN(c3ccc4[nH]ncc4c3)C(=O)[C@H]3CC=CC[C@@H]23)cc1Cl.Cl` (relative stereo) [Compound 9, (cis)-4-(3-Chloro-4-methoxy-phenyl)-2-(1H-indazol-5-yl)-4a,5,8,8a-tetrahydro-2H-phthalazin-1-one hydrochloride], in that order: 196 to 197 °C, 2.57 nM and 28.8 nM.
Turning to `COc1ccc(C2=NN(C3CCCC3)C(=O)[C@H]3CC=CC[C@@H]23)cc1Cl` (relative stereo) [Compound 10, (cis)-4-(3Chloro-4-methoxy-phenyl)-2-cyclopentyl-4a,5,8,8a-tetrahydro-2H-phthalazin-1-one], the IC50 was 0.776 nM in series [1] and 18.6 nM in series [2].
`COc1ccc(C2=NN(CCCCn3ccnc3)C(=O)[C@H]3CC=CC[C@@H]23)cc1Cl.Cl` (relative stereo) [Compound 11, (cis)-4-(3-Chloro-4-methoxy-phenyl)-2-(4-imidazol-1-yl-butyl)-4a,5,8,8a-tetrahydro-2H-phthalazin-1-one hydrochloride] displayed a melting point of 217 to 219 °C. In addition, the IC50 in series [1] is 0.891 nM. In addition, the IC50 in series [2] is 269 nM.
`COc1ccc(C2=NN(CCCCOc3ccc(C(=O)O)cc3)C(=O)[C@H]3CC=CC[C@@H]23)cc1Cl` (relative stereo) [Compound 12, (cis)-4-{4-[4-(3-Chloro-4-methoxy-phenyl)-1-oxo-4a,5,8,8a-tetrahydro-1H-phthalazin-2-yl]-butoxy}benzoic acid]: the melting point fell in the range of 169 to 171 °C. Further, the IC50 in series [1] is 6.46 nM. Also, the IC50 in series [2] is 97.7 nM.
Regarding `COc1ccc(C2=NN(c3ccc(C(=O)O)cc3)C(=O)[C@H]3CC=CC[C@@H]23)cc1F` (relative stereo) [Compound 13, (cis)-4-[4-(3-Fluoro-4-methoxy-phenyl)-1-oxo-4a,5,8,8a-tetrahydro-1H-phthalazin-2-yl]-benzoic acid], the melting point is 201 to 203 °C. The IC50 in series [1] is 45.7 nM. Besides, in series [2], the IC50 was 380 nM.
Molecule `COc1ccc(C2=NN(c3ccc(C(=O)O)cc3)C(=O)[C@H]3CC=CC[C@@H]23)cc1Cl` (relative stereo) [Compound 14, (cis)-4-{4-(3-chloro-4-methoxyphenyl)-1-oxo-4a,5,8,8a-tetrahydro-1H-phthalazin-2-yl}-benzoic acid] came in with a melting point of 222 to 224 °C.
For the molecule `COc1ccc(C2=NN(c3cc(C)c4c(C)nn(C)c4n3)C(=O)[C@H]3CC=CC[C@@H]23)cc1Cl` (relative stereo) [Compound 17, (cis)-4-(3-Chloro-4-methoxy-phenyl)-2-(1,3,4-trimethyl-1H-pyrazolo[3,4-b]pyridin-6-yl)-4a,5,8,8a-tetrahydro-2H-phthalazin-1-one], the IC50 was 21.9 nM in series [1] and 41.7 nM in series [2].
On to `COc1ccc(C2=NN(c3nc(-c4cccs4)ns3)C(=O)[C@H]3CC=CC[C@@H]23)cc1Cl` (relative stereo) [Compound 18, (cis)-4-(3-Chloro-4-methoxy-phenyl)-2-(3-thiophen-2-yl-[1,2,4]thiadiazol-5-yl)-4a,5,8,8a-tetrahydro-2H-phthalazin-1-one], for which the IC50 in series [1] was 23.4 nM; in series [2], 77.6 nM.
The molecule `COc1ccc(C2=NN(C3CCN(C(=O)N4CCNC4=O)CC3)C(=O)[C@H]3CC=CC[C@@H]23)cc1Cl` (relative stereo) [Compound 22, cis-4-(3-Chloro-4-methoxy-phenyl)-2-{1-[1-(2-oxo-imidazolidin-1-yl)-methanoyl]-piperidin-4-yl}-4a,5,8,8a-tetrahydro-2H-phthalazin-1-one] had a melting point of 216 to 218 °C.
